Results on 30 compounds are retold here after patent publication US20250179017A1 (GUANGDONG NEWOPP BIOPHARMACEUTICALS CO., LTD., priority 2022, published 2025).

Each structure is given as a SMILES string.

For this assay, the target named is T1, human EP2 (PTGER2) (Homo sapiens, UniProt P43116).
T1 construct: Cayman Chemical (Human EP2 Reporter Assay Kit)
T1 sequence (P43116 whole entry): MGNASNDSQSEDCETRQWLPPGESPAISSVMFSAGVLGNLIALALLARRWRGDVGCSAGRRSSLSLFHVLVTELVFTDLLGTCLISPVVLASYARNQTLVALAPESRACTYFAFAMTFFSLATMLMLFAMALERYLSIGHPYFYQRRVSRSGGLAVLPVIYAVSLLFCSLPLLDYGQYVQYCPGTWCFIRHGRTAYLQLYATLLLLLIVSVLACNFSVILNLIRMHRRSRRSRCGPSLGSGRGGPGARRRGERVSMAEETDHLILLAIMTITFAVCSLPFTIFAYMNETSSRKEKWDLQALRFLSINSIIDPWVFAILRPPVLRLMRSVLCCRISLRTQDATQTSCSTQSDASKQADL
The assay is described as follows: EP2 antagonist assay (HEK-293 CNG membrane potential cAMP assay / 293T SEAP reporter assay, PGE2-stimulated). It is filed as cell-based. To be noted: EP2 antagonist activity; concentration for 50% inhibition of signal compared to DMSO. The procedure, abridged: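 Two formats. In a CRE-SEAP reporter assay, reverse-transfected 293T cells received compound with PGE2 (13 nM final) for 6-8 h, then luminescence was read. In the ACTOne CNG format, HEK-293 cells were preincubated with compound for 15 min at RT, stimulated with 5 nM PGE2 for 30 min, and read by membrane-potential dye fluorescence. IC50 was taken versus DMSO.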
A general note: cAMP levels reflect the balance of adenylyl cyclase and phosphodiesterase activity.
Consider `C[C@H](NC(=O)c1cc(-c2ccccc2)cc2ccn(Cc3cccc(Cl)c3)c12)c1ccc(C(=O)O)cc1` [Example 110, (S)-4-(1-(1-(3-chlorobenzyl)-5-phenyl-1H-indole-7-carboxamido)ethyl)benzoic acid], for which the IC50 (in general, the concentration at which inhibition is half-maximal) was less than 100 nM. The compound `O=C(O)c1ccc(CNC(=O)c2cc(-c3ccc(F)cc3)cc3cnn(Cc4cccc(C(F)(F)F)c4)c23)cc1` [Example 138, 4-((5-(4-fluorophenyl)-1-(3-(trifluoromethyl)benzyl)-1H-indazole-7-carboxamido)methyl)benzoic acid] yielded an IC50 of less than 100 nM.

In turn, `O=C(O)c1ccc(C2(NC(=O)c3cc(-c4ccccc4)cc4ccn(Cc5ccc(C(F)(F)F)cc5)c34)CC2)cc1` [Example 6, 4-(1-(5-phenyl-1-(4-(trifluoromethyl)benzyl)-1H-indole-7-carboxamido)cyclopropyl)benzoiacid] showed an IC50 of 100 to 1000 nM.

Compound `O=C(O)c1ccc(C2(NC(=O)c3cc(Oc4ccccc4)cc4ccn(Cc5ccc(C(F)(F)F)cc5)c34)CC2)cc1` [Example 49, 4-(1-(5-phenoxy-1-(4-(trifluoromethyl)benzyl)-1H-indole-7-carboxamido)cyclopropyl)benzoic acid] came in with an IC50 of 100 to 1000 nM. As to `O=C(O)c1ccc(CNC(=O)c2cc(-c3cccnc3)cc3ccn(Cc4cccc(Cl)c4)c23)cc1` [Example 104, 4-((1-(3-chlorobenzyl)-5-(pyridin-3-yl)-1H-indole-7-carboxamido)methyl)benzoic acid], the IC50 was less than 100 nM. On to `C[C@H](NC(=O)c1cc(-c2ccc(F)cc2)cc2ccn(Cc3ccc(-c4ccc(F)cc4)cc3)c12)c1ccc(C(=O)O)cc1` [Example 213, (S)-4-(1-(1-((4′-fluoro-[1,1′-biphenyl]-4-yl)methyl)-5-(4-fluorophenyl)-1H-indole-7-carboxamido)ethyl)benzoic acid], for which the IC50 is less than 100 nM. `C[C@H](NC(=O)c1cc(-c2ccc(F)c(F)c2)cc2ccn(Cc3ccc4ccccc4c3)c12)c1ccc(C(=O)O)cc1` [Example 217, (S)-4-(1-(5-(3,4-difluorophenyl)-1-(naphthalen-2-ylmethyl)-1H-indole-7-carboxamido)ethyl)benzoic acid] had an IC50 of less than 100 nM. The figure for `C[C@H](NC(=O)c1cc(-c2ccc(F)cc2)cc2cnn(Cc3ccc(-c4ccccc4)cc3)c12)c1ccc(C(=O)O)cc1` [Example 199, (S)-4-(1-(1-([1,1′-biphenyl]-4-ylmethyl)-5-(4-fluorophenyl)-1H-indazole-7-carboxamido)ethyl)benzoic acid] is less than 100 nM; for `C[C@H](NC(=O)c1cc(-c2ccccc2)cc2ccn(Cc3ccc(-c4ccc(F)cc4)cc3)c12)c1ccc(C(=O)O)cc1` [Example 212, (S)-4-(1-(1-((4′-fluoro-[1,1′-biphenyl]-4-yl)methyl)-5-phenyl-1H-indole-7-carboxamido)ethyl)benzoic acid] it is less than 100 nM; for `O=C(O)c1ccc(CNC(=O)c2ccc(N3CCOCC3)c3ccn(Cc4ccc(C(F)(F)F)cc4)c23)cc1` [Example 58, 4-((4-morpholino-1-(4-(trifluoromethyl)benzyl)-1H-indole-7-carboxamido)methyl)benzoic acid] it is not below 1000 nM. The value for `C[C@H](NC(=O)c1cc(-c2ccc(F)cc2)cc2ccn(Cc3ccc4ccccc4n3)c12)c1ccc(C(=O)O)cc1` [Example 144, (S)-4-(1-(5-(4-fluorophenyl)-1-(quinolin-2-ylmethyl)-1H-indole-7-carboxamido)ethyl)benzoic acid] was less than 100 nM; that for `O=C(O)c1ccc(CNC(=O)c2cc(-c3cccnc3)cc3ccn(Cc4cccc(C(F)(F)F)c4)c23)cc1` [Example 123, 4-((5-(pyridin-3-yl)-1-(3-(trifluoromethyl)benzyl)-1H-indole-7-carboxamido)methyl)benzoic acid] was 100 to 1000 nM; that for `O=C(O)c1ccc(CNC(=O)c2cc(-c3ccccc3)cc3nnn(Cc4ccc(C(F)(F)F)cc4)c23)cc1` [Example 174, ((5-phenyl-1-(4-(trifluoromethyl)benzyl)-1H-benzo[d][1,2,3]triazole-7-carboxamido)methyl)benzoic acid] was less than 100 nM. The value for `NC(=O)c1cccc(-c2cc(C(=O)NC3CC4(C3)CC(C(=O)O)C4)c3c(Sc4ccc(C(F)(F)F)cc4)c[nH]c3c2)c1` (racemic) [Example 115, (±) 6-(6-(3-carbamoylphenyl)-3-((4-(trifluoromethyl)phenyl)thio)-1H-indole-4-carboxamido)spiro[3.3]heptane-2-carboxylic acid] was 100 to 1000 nM; that for `C[C@H](NC(=O)c1cc(-c2cc(F)cc(F)c2)cc2cnn(Cc3ccc(-c4ccccc4)cc3)c12)c1ccc(C(=O)O)cc1` [Example 200, (S)-4-(1-(1-([1,1′-biphenyl]-4-ylmethyl)-5-(3,5-difluorophenyl)-1H-indazole-7-carboxamido)ethyl)benzoic acid] was less than 100 nM.

`O=C(O)c1ccc(CNC(=O)c2cc(-c3cc(F)cc(F)c3)cc3cnn(Cc4ccc(-c5ccccc5)cc4)c23)cc1` [Example 192, 4-((1-([1,1′-biphenyl]-4-ylmethyl)-5-(3,5-difluorophenyl)-1H-indazole-7-carboxamido)methyl)benzoic acid] displayed an IC50 of less than 100 nM. The figure for `C[C@H](NC(=O)c1cc(-c2ccc(F)c(F)c2)cc2cnn(Cc3ccc(-c4ccccc4)cc3)c12)c1ccc(C(=O)O)cc1` [Example 201, (S)-4-(1-(1-([1,1′-biphenyl]-4-ylmethyl)-5-(3,4-difluorophenyl)-1H-indazole-7-carboxamido)ethyl)benzoic acid] is less than 100 nM; for `O=C(O)c1ccc(CNC(=O)c2cc(-c3cc(F)cc(F)c3)cc3cnn(Cc4cccc(C(F)(F)F)c4)c23)cc1` [Example 139, 4-((5-(3,5-difluorophenyl)-1-(3-(trifluoromethyl)benzyl)-1H-indazole-7-carboxamido)methyl)benzoic acid] it is less than 100 nM; for `O=C(O)c1ccc(C2(NC(=O)c3ccc(-c4cccc(C(F)(F)F)c4)c4ccn(Cc5ccc(C(F)(F)F)cc5)c34)CC2)cc1` [Example 40, 4-(1-(1-(4-(trifluoromethyl)benzyl)-4-(3-(trifluoromethyl)phenyl)-1H-indole-7-carboxamido)cyclopropyl)benzoic acid] it is not below 1000 nM. The value for `C[C@@H](NC(=O)c1cc(-c2cccc(C(F)(F)F)c2)cc2ccn(Cc3ccc(C(F)(F)F)cc3)c12)c1ccc(C(=O)O)cc1` [Example 15, (R)-4-(1-(1-(4-(trifluoromethyl)benzyl)-5-(3-(trifluoromethyl)phenyl)-1H-indole-7-carboxamido)ethyl) benzoic acid] was not below 1000 nM; that for `O=C(NC1CC2(C1)CC(C(=O)O)C2)c1cc(Br)cc2[nH]cc(Sc3ccc(C(F)(F)F)cc3)c12` (racemic) [Example 112, (+) 6-(6-bromo-3-((4-(trifluoromethyl)phenyl)thio)-1H-indole-4-carboxamido)spiro[3.3]heptane-2-carboxylic acid] was 100 to 1000 nM; that for `N#Cc1cccc(-c2cc(C(=O)NCc3ccc(C(=O)O)cc3)c3c(cnn3Cc3ccc(C(F)(F)F)cc3)c2)c1` [Example 98, 4-((5-(3-cyanophenyl)-1-(4-(trifluoromethyl)benzyl)-1H-indazole-7-carboxamido)methyl)benzoic acid] was less than 100 nM. Take `Cn1cc(Sc2ccc(C(F)(F)F)cc2)c2c(C(=O)NCc3ccc(C(=O)O)cc3)cc(-c3cccc(C(N)=O)c3)cc21` [Example 121, 4-((6-(3-carbamoylphenyl)-1-methyl-3-((4-(trifluoromethyl)phenyl)thio)-1H-indole-4-carboxamido)methyl)benzoic acid]: the IC50 was 100 to 1000 nM.

In turn, `O=C(O)c1ccc(CNC(=O)c2cc(-c3ccccc3C(F)(F)F)cc3ccn(Cc4ccc(C(F)(F)F)cc4)c23)cc1` [Example 89, 4-((1-(4-(trifluoromethyl)benzyl)-5-(2-(trifluoromethyl)phenyl)-1H-indole-7-carboxamido)methyl)benzoic acid] showed an IC50 of 100 to 1000 nM. Turning to `O=C(O)c1ccc(CNC(=O)c2cc(-c3ccccc3O)cc3ccn(Cc4ccc(C(F)(F)F)cc4)c23)cc1` [Example 86, 4-((5-(2-hydroxyphenyl)-1-(4-(trifluoromethyl)benzyl)-1H-indole-7-carboxamido)methyl)benzoic acid], the IC50 is less than 100 nM.

`N#Cc1ccc(Nc2ccc(C(=O)NC3(c4ccc(C(=O)O)cc4)CC3)c3c2ccn3Cc2ccc(C(F)(F)F)cc2)cc1` [Example 62, 4-(1-(4-((4-cyanophenyl)amino)-1-(4-(trifluoromethyl)benzyl)-1H-indole-7-carboxamido)cyclopropyl)benzoic acid] came in with an IC50 not below 1000 nM. Compound `O=C(O)c1ccc(CNC(=O)c2cc(-c3ccccc3)cc3ccn(Cc4cccc5ccccc45)c23)cc1` [Example 177, 44-((1-(naphthalen-1-ylmethyl)-5-phenyl-1H-indole-7-carboxamido)methyl)benzoic acid] displayed a concentration for half-maximal inhibition (IC50) of less than 100 nM. On to `O=C(O)c1ccc(CNC(=O)c2cc(-c3cccc(C(F)(F)F)c3)cc3ccn(Cc4ccc(C(F)(F)F)cc4)c23)cc1` [Example 10, 4-((1-(4-(trifluoromethyl)benzyl)-5-(3-(trifluoromethyl)phenyl)-1H-indole-7-carboxamido)methyl)benzoic acid], for which the half-inhibitory concentration (IC50) fell in the range of 100 to 1000 nM.

Turning to `O=C(O)c1ccc(CNC(=O)c2cc(-c3ccc(F)cc3)cc3cnn(Cc4ccc(-c5ccc(F)cc5)cc4)c23)cc1` [Example 185, 4-((1-((4′-fluoro-[1,1′-biphenyl]-4-yl)methyl)-5-(4-fluorophenyl)-1H-indazole-7-carboxamido)methyl)benzoic acid], the IC50 is less than 100 nM. `C[C@H](NC(=O)c1cc(-c2ccccc2)cc2cnn(Cc3cccc(Cl)c3)c12)c1ccc(C(=O)O)cc1` [Example 170, (S)-4-(1-(1-(3-chlorobenzyl)-5-phenyl-1H-indazole-7-carboxamido)ethyl)benzoic acid] yielded an IC50 of less than 100 nM.
